Drawing on article PMC5581453, “Combination therapy of PKCζ and COX-2 inhibitors synergistically suppress melanoma metastasis” (Journal of Experimental & Clinical Cancer Research : CR, 2017), this text covers IC50 for one compound.

The target of this test is T1, PKCζ (protein kinase C ζ) (Homo sapiens, UniProt Q05513).
T1 construct: gene PRKCZ
T1 sequence (Q05513 1-592): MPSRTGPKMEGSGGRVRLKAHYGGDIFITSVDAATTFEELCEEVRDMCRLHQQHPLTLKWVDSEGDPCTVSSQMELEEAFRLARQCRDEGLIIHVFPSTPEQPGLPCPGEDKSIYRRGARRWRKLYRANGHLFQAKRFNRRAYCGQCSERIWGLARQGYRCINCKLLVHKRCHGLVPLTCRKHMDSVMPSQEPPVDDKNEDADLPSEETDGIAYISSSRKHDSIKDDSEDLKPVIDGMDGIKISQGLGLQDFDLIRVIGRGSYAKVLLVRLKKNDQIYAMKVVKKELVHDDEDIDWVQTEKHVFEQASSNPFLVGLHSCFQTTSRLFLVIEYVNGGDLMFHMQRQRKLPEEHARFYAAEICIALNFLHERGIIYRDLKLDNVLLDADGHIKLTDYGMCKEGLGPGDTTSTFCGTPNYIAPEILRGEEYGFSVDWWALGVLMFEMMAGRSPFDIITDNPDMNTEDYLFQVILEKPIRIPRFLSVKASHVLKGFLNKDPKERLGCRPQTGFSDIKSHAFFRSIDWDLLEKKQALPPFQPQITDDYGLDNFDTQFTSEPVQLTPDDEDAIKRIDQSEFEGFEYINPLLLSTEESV
Nature of the test: Z'-LYTE kinase assay (Ser/Thr […] peptide) with purchased PKCζ (Invitrogen Cat. No. […]), […] ATP. The test is classed as biochemical.

With `Cc1c(CSC(=N)N)c(C)c(CSC(=N)N)c(C)c1CSC(=N)N` [J-4], the IC50 (commonly the midpoint of a concentration-inhibition curve) was about 10 µM.
